From patent publication US9809853B2, “Calcium-activated chloride channel involved in human sweat formation” (BRAIN Biotechnology Research and Information Network AG, priority 2012, dated 2017)

Target: T1, CaCC (Ca^2+-activated chloride channels) in NCL-SG3-hsYFP cells (Homo sapiens, UniProt Q5XXA6)
T1 sequence (Q5XXA6 1-986): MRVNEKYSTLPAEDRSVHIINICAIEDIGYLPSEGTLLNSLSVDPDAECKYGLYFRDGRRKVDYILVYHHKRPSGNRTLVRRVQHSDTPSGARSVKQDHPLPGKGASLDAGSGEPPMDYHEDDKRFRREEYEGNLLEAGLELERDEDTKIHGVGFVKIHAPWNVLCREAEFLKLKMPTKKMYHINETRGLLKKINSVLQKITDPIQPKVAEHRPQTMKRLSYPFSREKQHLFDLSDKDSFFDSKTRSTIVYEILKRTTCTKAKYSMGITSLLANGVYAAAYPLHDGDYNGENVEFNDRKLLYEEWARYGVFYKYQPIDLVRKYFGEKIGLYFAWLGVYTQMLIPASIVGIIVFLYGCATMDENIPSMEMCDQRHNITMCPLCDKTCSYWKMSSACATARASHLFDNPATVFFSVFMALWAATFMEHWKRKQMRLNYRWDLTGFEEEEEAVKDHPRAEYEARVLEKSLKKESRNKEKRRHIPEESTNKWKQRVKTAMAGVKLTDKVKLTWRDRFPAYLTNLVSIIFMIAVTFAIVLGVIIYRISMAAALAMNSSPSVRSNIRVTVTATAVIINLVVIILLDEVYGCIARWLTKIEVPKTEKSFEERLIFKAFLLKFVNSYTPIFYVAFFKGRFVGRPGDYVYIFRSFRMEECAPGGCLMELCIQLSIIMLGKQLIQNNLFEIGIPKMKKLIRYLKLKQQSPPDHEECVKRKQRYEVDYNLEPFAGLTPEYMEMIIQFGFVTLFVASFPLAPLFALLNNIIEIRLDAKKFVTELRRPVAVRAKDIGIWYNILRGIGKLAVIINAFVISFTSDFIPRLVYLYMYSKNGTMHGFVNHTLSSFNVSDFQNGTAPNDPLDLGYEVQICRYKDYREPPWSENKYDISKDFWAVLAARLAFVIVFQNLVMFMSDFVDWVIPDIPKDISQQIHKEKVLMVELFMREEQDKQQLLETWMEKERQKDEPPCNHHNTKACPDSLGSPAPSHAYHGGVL
Assay: hsYFP fluorescence quenching (Cl^− efflux/I^− influx) assay in NCL-SG3-hsYFP CaCC activity sensor cells
Type: cell-based
Description: The halide inside the cell functionally interacts with the halide-sensitive cytoplasmic indicator protein, which leads to a quenching of the signal provided by the halide-sensitive cytoplasmic indicator protein. The more halide (such as e.g. iodide) flows into the cell, the weaker the signal emitted by the halide-sensitive cytoplasmic indicator protein becomes. This alteration of the signal emitted by the halide-sensitive cytoplasmic indicator protein is determined in a third step of the method of the invention. Due to the fact that the influx of halide into the cell is proportional to the efflux of chloride ions, the halide influx is used as a direct measure for chloride secretion. To determine the amount of chloride secretion, the fluorescence decrease is plotted against time (Δfluorescence/Δtime) and the initial slope of the resulting graph represents the iodide influx rate (sec^−1), which in turn is directly proportional to the chloride efflux rate, representing the amount of chloride secretion per time. In a fourth step, this amount of chloride secretion determined in the presence of a test compound is compared to the amount of chloride secretion determined in the absence of a said compound.
Effect of CaCC inhibitors on sweat gland-specific Ca^2+-dependent […] and proportional I^− influx was determined using NCL-SG3-hsYFP cells. Quenching of intracellular hsYFP fluorescence was measured and plotted over time. Exemplary raw data (B) and fitted curves are shown (A). NCL-SG3-hsYFP cells were incubated with 50 μM tannic acid (TA), 25 μM niflumic acid (NFA), 25 μM 5-nitro-2-(3-phenylpropyl-amino) benzoic acid (NPPB), 100 μM epigallocatechin-3-gallate (EGCG) for 15 min and then stimulated with 330 μM ATP.
Sweat gland-specific Ca^2+-dependent Cl^− efflux and a proportional I^− influx was determined using NCL-SG3-hsYFP cells. Quenching of intracellular hsYFP fluorescence was measured and plotted over time. Exemplary fitted curves are shown. NCL-SG3-hsYFP cells were incubated with increasing concentrations of tannic acid (TA) and then stimulated with 330 μM ATP. […] NCL-SG3-hsYFP cells were incubated with increasing concentrations of CaCC inhibitors and quenching of intracellular hsYFP fluorescence was measured after stimulation with ATP. The rate of […] (sec^−1), which is proportional to Ca^2+-dependent […] was calculated from the initial slope of the measured hsYFP fluorescence (ΔYFP fluorescence/Δtime) and is a direct measure of CaCC activity. IC50 values were determined by plotting the percentage of residual CaCC activity against the individual inhibitor concentration.
NCL-SG3-hsYFP cells were routinely cultivated in Williams' Medium E supplemented with 9% Fetal Calf Serum, 3.5 mM Glutamine, 9 ng/μl Hydrocortisone, Insulin-Transferrin-Selenium-Supplement (PAA Laboratories) at 37° C. and 5% CO2. For microplate assays, 20,000 cells were seeded in 96-well black-walled, clear bottom microplates (Costar) and cultivated for 2 days until cells reached confluency. Cells were washed three times with 100 μl modified Krebs-Henseleit (KH) buffer (137 mM NaCl, 2.7 mM KCl, 1.2 mM MgSO4, 1.2 mM KH2PO4, 4.2 mM NaHCO3, 1.3 mM CaCl2, 10 mM HEPES, pH 7.4) and incubated with the test compound in 50 μl KH-buffer for 15 min at 37° C. and 5% CO2. Microplates were transferred into an automated fluorescence plate reader (FlexStation®, Molecular Devices) and cellular hsYFP fluorescence was continuously recorded every 3.5 sec until end of the experiment (excitation at 485 nm, emission at 535 nm, cutoff 515 nm).

SMILES | Quenching of hsYFP fluorescence after addition of Ca^2+-elevating agent (330 μM) | Concentration giving maximal quenching of hsYFP (dose-dependent stimulation of Ca^2+-dependent Cl^− transport) [µM] | Effect on hsYFP quenching by Cl^− efflux/I^− influx mediated by ATP (50 μM, 15 min, then 330 μM ATP) | Dose dependence of inhibition of CaCC-mediated Cl^− efflux (increasing inhibitor concentrations, stimulation with 330 μM ATP) | Effect of pretreatment on basal hsYFP quenching (unactivated cells (no ATP))
Nc1ncnc2c1ncn2[C@@H]1O[C@H](COP(=O)(O)OP(=O)(O)OP(=O)(O)O)[C@@H](O)[C@H]1O [ATP] | fast quenching of the hsYFP fluorescence without recovery | 330 |  |  | 
O=C(OC[C@H]1O[C@@H](OC(=O)c2cc(O)c(O)c(OC(=O)c3cc(O)c(O)c(O)c3)c2)[C@H](OC(=O)c2cc(O)c(O)c(OC(=O)c3cc(O)c(O)c(O)c3)c2)[C@@H](OC(=O)c2cc(O)c(O)c(OC(=O)c3cc(O)c(O)c(O)c3)c2)[C@@H]1OC(=O)c1cc(O)c(O)c(OC(=O)c2cc(O)c(O)c(O)c2)c1)c1cc(O)c(O)c(OC(=O)c2cc(O)c(O)c(O)c2)c1 [TA, tannic acid] |  |  | significant reduction of hsYFP quenching | dose-dependent reduction of hsYFP quenching | significant reduction of basal hsYFP quenching
